# US20260151384A1, “ISOQUINOLINE DERIVATIVES AS PROTEIN DEGRADERS, E7 DEGRADERS, ANTIVIRALS, TUMOR THERAPEUTICS AND IMMUNE SUPPRESSIVES” (priority 2022, published 2026)
# Where “and” joins values, the source holds several entries; their conditions need not be identical. Equal values may be shown once.
# Tests used:
# HPV16 E7 protein = HPV16 E7 protein (Human papillomavirus type 16, UniProt P03129); format: cell-based; settings: for % Dad: adjusted degradation, CHX steady state set to 100%, Table 2 screen
# Chain of HPV16 E7 protein (P03129 whole entry): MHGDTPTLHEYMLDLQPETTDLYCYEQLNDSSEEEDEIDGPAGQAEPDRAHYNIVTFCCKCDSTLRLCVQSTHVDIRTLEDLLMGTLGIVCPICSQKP
# SARS-CoV-2 = assay: microbe, parasite or virus in culture; format: cell-based; settings: for % Inhibition of SARV-CoV-2 virus activity: 1.25 μM, n4
# CaSki cells [1] = assay: Monolayer assay using Sulphorhodamine B (SRB) staining, CaSki; format: cell-based, human
# CaSki cells [2] = assay: Cell cycle analysis using Propidium-Iodide staining (flow cytometry); format: cell-based, human; settings: 48 hour incubation
# Description: Propidium-Iodide (PI) DNA staining is performed to facilitate cell cycle analysis. For PI-DNA staining, fixed cells and eventually antibody-stained cells are resuspended in 450 μl of PBS (per 10^6 cells) and incubated with 100 μg/ml RNase (stock 1 mg/ml, in PBS) for 10 minutes at 37° C. Cells are then incubated with 5 μg/106 cells of PI (stock 1 mg/ml in PBS) for 10 minutes at room temperature. Samples are stored at 4° C. until CF analysis.
# CaSki cells were incubated with various compounds and cell cycle distribution of the cells was assessed using Propidium-Iodide staining.
# In order to analyze the cytostatic versus the cytotoxic effect of OC compounds, cell cycle profiles were analyzed in vitro after 48 hour incubations using Flow Cytometry as a read out. For this a cell cycle analysis from selected OC E7 degrader compounds was conducted in CaSki cells. Using 6 well plates, 1.5×10^5 cells were seeded for each well and grown over night at 37° C. 5% CO2. For analysis of the cell cycle behavior, cells were analyzed in the presence of propidium Iodide (PI^−) by flow cytometry (FC). Briefly, cells were detached by trypsin digestion, all supernatants were included in the analysis, and fixed with 70% ice cold ethanol and stored at 4° C. until FC analysis using P1^− staining (1 mg/ml). At least 7000 events were acquired for each sample.
# [3] = test system: human cervical carcinoma (CaSki) xenograft; assay: Antitumor efficacy on CaSki human cervical carcinoma xenograft model; format: in vivo, nude mice; settings: for % TGI (Day 44), percentage tumor growth inhibition with respect to controls: OC246/OC974 2 mg/kg os
# Description: The aim of this study was to assess the in vivo efficacy of OC246 and OC974 on a human cervical carcinoma (CaSki) xenograft model in nude mice. OC246 and OC974 were administered oral once daily for four times with three days off, for three cycles at 2 mg/kg/dose. Cisplatin (CDDP) was used as a reference compound with three weekly intravenous (q7dx3) administrations of 6 mg/kg.
compound,measurement,setting,value
Cc1ccc(CN2C(=O)c3ccccc3C(C(=O)NCc3ccc(C(C)C)cc3)C2c2ccc(Cl)cc2)cc1 (stereo not drawn) [OC254],% Dad,HPV16 E7 protein,16%
Nc1ccc(-c2ccc3ncc4ccc(=O)n(-c5cccc(C(F)(F)F)c5)c4c3c2)cn1 [Torin2],% Inhibition of SARV-CoV-2 virus activity,SARS-CoV-2,1.46%
"COc1ccc2c(c1)C(=O)N(CC1CCN(C)CC1)[C@@H](c1ccc(C(F)(F)F)cc1)[C@@H]2C(=O)Nc1cccc(N2CCN(C)CC2)c1 (relative stereo) [VS977, rel-(3R,4R)-7-methoxy-N-(3-(4-methylpiperazin-1-yl)phenyl)-2-((1-methylpiperidin-4-yl)methyl)-1-oxo-3-(4-(trifluoromethyl)phenyl)-1,2,3,4-tetrahydroisoquinoline-4-carboxamide]","SRB anti-neoplastic effect compared among VS035, VS977, VS978, OC969","CaSki cells [1]; CaSki, Test 21, FIG. 12",strongest effect
"CN1CCC(CN2C(=O)c3ccccc3[C@@H](C(=O)Nc3cccc(N4CCN(C)CC4)c3)[C@@H]2c2ccc(C(F)(F)F)cc2)CC1 (relative stereo) [OC974, rel-(3R,4R)-N-(3-(4-methylpiperazin-1-yl)phenyl)-2-((1-methylpiperidin-4-yl)methyl)-1-oxo-3-(4-(trifluoromethyl)phenyl)-1,2,3,4-tetrahydroisoquinoline-4-carboxamide]",EC50,"CaSki cells [1]; Homo sapiens, Ca-Ski, read-out: EC50 mean [nM]",1550 nM
same,G1/5 μM,"CaSki cells [2]; 5 μM, % cells in G1, no treatment 53.3",49.6%
same,G2/5 μM,"CaSki cells [2]; 5 μM, % cells in G2, no treatment 15.6",9.9%
same,A*/5 μM (Apoptosis as measured from total SUB G1 content),"CaSki cells [2]; 5 μM, no treatment 15.0",19.5%
same,G1/10 μM,"CaSki cells [2]; 10 μM, % cells in G1, no treatment 53.3",8.7%
same,G2/10 μM,"CaSki cells [2]; 10 μM, % cells in G2, no treatment 15.6",0.8%
same,A*/10 μM (Apoptosis as measured from total SUB G1 content),"CaSki cells [2]; 10 μM, no treatment 15.0",82.9% and 81.8%
same,Tumor Volume Day 44 (mm^3 ± SD),"[3]; OC246/OC974 2 mg/kg os daily 4 x week 3 cycles, CDDP 6 mg/kg i.v. q7dx3, n = 7, control 1099 ± 503",307 ± 171 mm^3
same,"% TGI (Day 44), percentage tumor growth inhibition with respect to controls",[3]; CDDP 6 mg/kg i.v. q7dx3,63.9%
same,Δ% Body Weight,"[3]; between first day of treatment (day 20) and Day 44, control +4.9",+1.1%
same,Δ% on Day 44,"[3]; same schedules, control 100",23%
same,inhibition at 1.25 µM,"SARS-CoV-2; Severe acute respiratory syndrome coronavirus 2, n4, read-out: % Inhibition of SARV-CoV-2 virus activity",54.3%
CCC(=O)N1CCN(c2ccc(-n3c(=O)ccc4cnc5ccc(-c6cnc7ccccc7c6)cc5c43)cc2C(F)(F)F)CC1 [Torin1],% Inhibition of SARV-CoV-2 virus activity,SARS-CoV-2,7.00%
Cc1ccc(CN2C(=O)c3ccccc3C(C(=O)NCc3ccc(Cl)cc3)C2c2ccc(Cl)cc2)cc1 (stereo not drawn) [OC253],% Dad,HPV16 E7 protein,0%
"C[C@@H]1C[C@@H]([C@H](O)CC2CC(=O)NC(=O)C2)C(=O)[C@@H](C)C1 [CHX, Cycloheximide, reference compound]",% Dab,"HPV16 E7 protein; CaSki cells, 10 μM, four hours, CHX set to 100%",100%
same,Measured MFI (mean fluorescence intensity) of E7 signal,"HPV16 E7 protein; CaSki cells, 10 μM, four hours, vehicle T 8.06",1.71
COc1ccc2cc1Oc1ccc(cc1)C[C@H]1c3c(cc4c(c3Oc3cc5c(cc3OC)CCN(C)[C@@H]5C2)OCO4)CCN1C [Cepharantin],% Inhibition of SARV-CoV-2 virus activity,SARS-CoV-2,2.32%
CCNC(=O)N1CCN(C(=O)C2c3ccccc3C(=O)N(Cc3ccc(C)cc3)C2c2ccc(Cl)cc2)CC1 (stereo not drawn) [OC257],% Dad,HPV16 E7 protein,12%
c1c2c(cc3c1OCO3)-c1cc3ccc4c(c3c[n+]1CC2)OCO4 [Coptisin],% Inhibition of SARV-CoV-2 virus activity,SARS-CoV-2,98.97%
CS(=O)(=O)O.Cc1c(O)cccc1C(=O)N[C@@H](CSc1ccccc1)[C@H](O)CN1C[C@H]2CCCC[C@H]2C[C@H]1C(=O)NC(C)(C)C [Neifinavir-Mesylat],% Inhibition of SARV-CoV-2 virus activity,SARS-CoV-2,9.49%
"[NH2][Pt]([NH2])([Cl])[Cl] [CDDP, Cisplatin, reference compound]","% TGI (Day 44), percentage tumor growth inhibition with respect to controls",[3]; CDDP 6 mg/kg i.v. q7dx3,79.2%
